From US10966426B2, “Herbicidal compositions comprising phenylpyrimidines” (BASF SE, priority 2016, dated 2021)
Where “and” joins values, the source holds several entries; their conditions need not be identical. Identical values can stand only once.

Tests used:
Format in all cases: in vivo
[1] = tested on: Digitaria sanguinalis; test: greenhouse pre-emergence treatment, DIGSA
Method in brief: (§1)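 Pre-emergence spray of compounds, alone or as combinations formulated as 10% emulsion concentrate in water, directly after sowing in loamy sand (~3.0% humus); pots hooded until rooting, kept at 10-25° C or 20-35° C per species for 2 to 4 weeks. Damage scored 0-100 (100 = no emergence/complete destruction); Colby expected value E=X+Y−(X·Y/100).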

[2] = tested on: Alopecurus myosuroides; test: greenhouse pre-emergence treatment, ALOMY; conditions: 20 DAT
Method in brief: as §1

[3] = tested on: Poa annua; test: greenhouse pre-emergence treatment, POAAN; conditions: 20 DAT
Method in brief: as §1

[4] = tested on: Lolium multiflorum; test: greenhouse pre-emergence treatment, LOLMU
Method in brief: as §1

[5] = tested on: Echinocloa crus-galli; test: greenhouse pre-emergence treatment, ECHCG
Method in brief: as §1

[6] = tested on: Stellaria media; test: greenhouse post-emergence treatment, STEME
Method in brief: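 Visual herbicidal effect (0–100) recorded over a 2 to 4 week test period after foliar treatment at plant heights of 3 to 15 cm. Expected combination effects derived by the Colby formula from single-component effects X and Y.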

[7] = tested on: Bromus sterilis; test: greenhouse pre-emergence treatment, BROST
Method in brief: as §1

[8] = tested on: Matricaria chamomilla; test: greenhouse pre-emergence treatment, MATCH; conditions: 20 DAT
From the text: (§2) The culture containers used were plastic pots containing loamy sand with approximately 3.0% of humus as substrate. The seeds of the test plants were sown separately for each species.
For the pre-emergence treatment, the active compounds, suspended or emulsified in water, were applied directly after sowing by means of finely distributing nozzles. The containers were irrigated gently to promote germination and growth and subsequently covered with transparent plastic hoods until the plants had rooted. This cover caused uniform germination of the test plants unless this was adversely affected by the active compounds.
(§3) Depending on the species, the plants were kept at 10-25° C. and 20-35° C., respectively.
(§4) The test period extended over 2 to 4 weeks. During this time, the plants were tended and their response to the individual treatments was evaluated.
(§5) Evaluation was carried out using a scale from 0 to 100. 100 means no emergence of the plants, or complete destruction of at least the above-ground parts, and 0 means no damage or normal course of growth. A good herbicidal activity is given at values of at least 70, and very good herbicidal activity is given at values of at least 85.
(§6) The respective stated components A and B, and if appropriate, C were formulated as a 10% by weight strength emulsion concentrate and, with addition of the amount of solvent system, introduced into the spray liquor used for applying the active compound. In the examples, the solvent used was water.
(§7) In the examples below, using the method of S. R. Colby (1967) “Calculating synergistic and antagonistic responses of herbicide combinations”, Weeds 15, p. 22ff., the value E, which is expected if the activity of the individual active compounds is only additive, was calculated. E=X+Y−(X·Y/100) where X=effect in percent using herbicide A at an application rate a; • Y=effect in percent using herbicide B at application rate b; • E=expected effect (in %) of herbicide A+herbicide B at application rates a+b.

[9] = tested on: Setaria viridis; test: greenhouse pre-emergence treatment, SETVI
Method in brief: as §1

[10] = tested on: Helianthus annuus; test: greenhouse post-emergence treatment, HELAN
Description: as §2
For the post-emergence treatment, the test plants were grown to a plant height of from 3 to 15 cm, depending on the plant habit, and only then treated with the active compounds which had been suspended or emulsified in water. To this end, the test plants were either sown directly, and grown in the same containers, or they were first grown separately as seedlings and transplanted into the test containers a few days prior to treatment.
as §3, §4, §5, §6, §7

[11] = 20 DAT, Ex. 26 solo 31.25 gai/ha
[12] = 20 DAT, Ex. 26 solo 62.5 gai/ha

## COC(=O)c1nc(C2CC2)ncc1-c1ccc(F)cc1Cl [Ex. 26]
[1]; [11]
  % activity: 30%
[1]; [12]
  % activity: 30%
[1]; 20 DAT, Ex. 26 solo 125 gai/ha
  % activity: 60%
[1]; DIGSA, 20 DAT, solo Ex. 26 62.5 gai/ha
  % activity: 20%
[1]; DIGSA, 20 DAT, solo Ex. 26 125 gai/ha
  % activity: 45%
[1]; DIGSA, 20 DAT, solo Ex. 26 125 gai/ha (Table X68)
  % activity: 40%
[1]; DIGSA, Ex. 26 solo 31.25 gai/ha, 20 DAT
  % activity: 35%
[1]; DIGSA, Ex. 26 solo 62.5 gai/ha, 20 DAT
  % activity: 55%
[1]; DIGSA, Ex. 26 solo 125 gai/ha, 20 DAT
  % activity: 60%
[1]; Ex. 26 solo 125 gai/ha, 21 DAT, DIGSA
  % activity: 45%
[1]; Ex. 26 solo, 31.25 gai/ha, 20 DAT, DIGSA
  % activity: 5%
[1]; Ex. 26 solo, 125 gai/ha, 20 DAT, DIGSA
  % activity: 40%
[2]; solo Ex. 26 62.5 gai/ha
  % activity: 85%
[2]; Ex. 26 solo 62.5 gai/ha
  % activity: 60%
[2]; Ex. 26 solo, 31.25 gai/ha
  % activity: 60%
[2]; Ex. 26 solo, 62.5 gai/ha
  % activity: 80%
[3]; solo Ex. 26 62.5 gai/ha
  % activity: 70%
[3]; solo Ex. 26 125 gai/ha
  % activity: 65%
[3]; Ex. 26 solo 62.5 gai/ha
  % activity: 75% and 90%
[3]; Ex. 26 solo, 31.25 gai/ha
  % activity: 30%
[3]; Ex. 26 solo, 125 gai/ha
  % activity: 65%
[4]; [11]
  % activity: 10%
[4]; 20 DAT, LOLMU, Ex. 26 solo 62.5 gai/ha
  % activity: 10%
[4]; Ex. 26 solo 62.5 gai/ha, 20 DAT, LOLMU
  % activity: 30%
[4]; Ex. 26 solo, 31.25 gai/ha, 20 DAT, LOLMU
  % activity: 0%
[4]; Ex. 26 solo, 62.5 gai/ha, 20 DAT, LOLMU
  % activity: 0%
[4]; Ex. 26 solo, 125 gai/ha, 20 DAT, LOLMU
  % activity: 0%
[4]; LOLMU, 20 DAT, solo Ex. 26 62.5 gai/ha
  % activity: 0%
[4]; LOLMU, 20 DAT, solo Ex. 26 62.5 gai/ha (Table X68)
  % activity: 0%
[4]; LOLMU, 20 DAT, solo Ex. 26 125 gai/ha
  % activity: 0%
[4]; LOLMU, Ex. 26 solo 31.25 gai/ha, 20 DAT
  % activity: 0%
[4]; LOLMU, Ex. 26 solo 62.5 gai/ha, 20 DAT
  % activity: 0%
[4]; LOLMU, Ex. 26 solo 125 gai/ha, 20 DAT
  % activity: 30%
[5]; [11]
  % activity: 50%
[5]; 20 DAT, Ex. 26 solo 125 gai/ha
  % activity: 90%
[5]; 20 DAT, solo Ex. 26 62.5 gai/ha
  % activity: 60%
[5]; Ex. 26 solo 31.25 gai/ha, 20 DAT
  % activity: 50%
[5]; Ex. 26 solo 62.5 gai/ha, 20 DAT
  % activity: 70%
[5]; Ex. 26 solo 125 gai/ha, 20 DAT
  % activity: 90%
[5]; Ex. 26 solo, 31.25 gai/ha, 20 DAT
  % activity: 50%
[6]; [12]
  % activity: 0%
[6]; 20 DAT, STEME, Ex. 26 solo 250 gai/ha
  % activity: 60%
[6]; Ex. 26 solo 62.5 gai/ha, 20 DAT, STEME
  % activity: 20%
[6]; Ex. 26 solo 125 gai/ha, 20 DAT, STEME
  % activity: 55%
[6]; Ex. 26 solo 125 gai/ha, 21 DAT, STEME
  % activity: 0%
[6]; Ex. 26 solo 250 gai/ha, 20 DAT, STEME
  % activity: 30%
[6]; Ex. 26 solo, 125 gai/ha, 21 DAT, STEME
  % activity: 0%
[6]; Ex. 26 solo, 250 gai/ha, 21 DAT, STEME
  % activity: 10%
[6]; STEME, 21 DAT, solo Ex. 26 62.5 gai/ha
  % activity: 0%
[6]; STEME, 21 DAT, solo Ex. 26 125 gai/ha
  % activity: 0%
[6]; STEME, 21 DAT, solo Ex. 26 250 gai/ha
  % activity: 10%
[6]; STEME, Ex. 26 solo 125 gai/ha, 20 DAT
  % activity: 40%
[6]; STEME, Ex. 26 solo 250 gai/ha, 20 DAT
  % activity: 40%
[7]; 20 DAT, BROST, Ex. 26 solo 31.25 gai/ha
  % activity: 10%
[7]; 20 DAT, BROST, Ex. 26 solo 125 gai/ha
  % activity: 35%
[7]; 21 DAT, BROST, Ex. 26 solo 125 gai/ha
  % activity: 60%
[7]; BROST, 20 DAT, solo Ex. 26 125 gai/ha
  % activity: 35%
[7]; BROST, 20 DAT, solo Ex. 26 125 gai/ha (Table X68)
  % activity: 30%
[7]; BROST, Ex. 26 solo 62.5 gai/ha, 20 DAT
  % activity: 20%
[7]; BROST, Ex. 26 solo 125 gai/ha, 20 DAT
  % activity: 30%
[7]; Ex. 26 solo 125 gai/ha, 20 DAT, BROST
  % activity: 35%
[7]; Ex. 26 solo, 31.25 gai/ha, 20 DAT, BROST
  % activity: 0%
[7]; Ex. 26 solo, 62.5 gai/ha, 20 DAT, BROST
  % activity: 20%
[7]; Ex. 26 solo, 125 gai/ha, 20 DAT, BROST
  % activity: 30%
[8]; Ex. 26 solo 62.5 gai/ha
  % activity: 0%
[8]; Ex. 26 solo 125 gai/ha
  % activity: 0%
[9]; [11]
  % activity: 0%
[9]; [12]
  % activity: 0%
[9]; 20 DAT, Ex. 26 solo 125 gai/ha
  % activity: 10%
[9]; Ex. 26 solo 62.5 gai/ha, 20 DAT, SETVI
  % activity: 0%
[9]; Ex. 26 solo 62.5 gai/ha, 21 DAT, SETVI
  % activity: 0%
[9]; Ex. 26 solo 125 gai/ha, 20 DAT, SETVI
  % activity: 0%
[9]; Ex. 26 solo 125 gai/ha, 21 DAT, SETVI
  % activity: 20%
[9]; Ex. 26 solo 250 gai/ha, 21 DAT, SETVI
  % activity: 25%
[9]; Ex. 26 solo, 31.25 gai/ha, 20 DAT, SETVI
  % activity: 0%
[9]; Ex. 26 solo, 62.5 gai/ha, 20 DAT, SETVI
  % activity: 0%
[9]; Ex. 26 solo, 125 gai/ha, 20 DAT, SETVI
  % activity: 0%
[9]; SETVI, 20 DAT, solo Ex. 26 125 gai/ha
  % activity: 0%
[9]; SETVI, Ex. 26 solo 125 gai/ha, 20 DAT
  % activity: 10%
[9]; SETVI, Ex. 26 solo 250 gai/ha, 20 DAT
  % activity: 35%
[10]; 20 DAT, Ex. 26 solo 250 gai/ha
  % activity: 0%
[10]; 20 DAT, HELAN, Ex. 26 solo 125 gai/ha
  % activity: 0% and 10%
[10]; 20 DAT, HELAN, Ex. 26 solo 250 gai/ha
  % activity: 10%
[10]; Ex. 26 solo 62.5 gai/ha, 20 DAT, HELAN
  % activity: 0%
[10]; Ex. 26 solo 125 gai/ha, 20 DAT, HELAN
  % activity: 0%
[10]; Ex. 26 solo 250 gai/ha, 20 DAT, HELAN
  % activity: 5%
[10]; Ex. 26 solo, 125 gai/ha, 21 DAT, HELAN
  % activity: 10%
[10]; Ex. 26 solo, 250 gai/ha, 21 DAT, HELAN
  % activity: 25%
